Test results as given in US20030013883A1, “Tropane analogs binding to monoamine transporters” (priority 2000, published 2003).
Read-outs that look alike come from different tables or passages of the source.

Experiments:
[1] = target: T1, serotonin transporter (SERT) (Rattus norvegicus, UniProt P31652); experiment: Radioligand binding to serotonin transporter, [3H]paroxetine, rat cerebral cortex homogenate; settings: for Selectivity for SERT: ratio of Ki for NET or DAT to that for SERT (values match DAT/SERT), larger number is more selective for SERT
T1 construct: For SERT and NET assays, rat cerebral cortex was homogenized in cold SERT assay buffer; from tissue; host or cells: rat cerebral cortex
Description: (§1) 30: 89-92, 1990; Andersen, P. H., J. Neurochem. 48:1887-1896, 1987).

[2] = target: T2, norepinephrine transporter (NET) (Rattus norvegicus, UniProt Q63380); experiment: Radioligand binding to norepinephrine transporter, [3H]nisoxetine, rat cerebral cortex homogenate
T2 construct: from tissue; host or cells: rat cerebral cortex
Description: as §1

[3] = target: dopamine transporter (DAT) (Rattus norvegicus, UniProt P23977); experiment: Radioligand binding to dopamine transporter, [3H]GBR-12935, rat corpus striatum homogenate;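 note: displacement read as filter-bound tritium by liquid scintillation counting, roughly 1 mg wet tissue per tube, IC50 from fitted concentration-inhibition curves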
Description: For DAT assays, corpus striatum tissue from rat forebrain was rapidly dissected on ice, pooled, weighed, and homogenized at 30 mg/mL in cold DAT buffer (50 mM Tris citrate, pH 7.4, 120 mM NaCl, 4 mM MgCl2) and stored at −70° C. The pellet was suspended in the assay buffer to provide the equivalent of about 1 mg of wet weight per assay tube.
L=400 pM) and 1.0 μM GBR-12909 (Research Biochemicals International, Natick, Mass.) as blank (Kula, N. S. et al., Neuropharmacology.
Assay tubes were incubated at room temperature for 120 min (SERT) or on ice for 180 min (NET) or 45 min (DAT). Labeled tissue samples were recovered in a Brandel Cell Harvester on glass fiber filter sheets saturated with 0.3% (v/v) aqueous polyethyleneimine, washed with ice-cold 0.9% NaCl, and counted for tritium in a liquid scintillation counter. Concentration-inhibition curves were computer-fit to determine IC50±SEM and converted to Ki values in nM from the Cheng -Prusoff relationship Ki=IC50/(1+[L]/Kd).

[4] = rat cerebral cortex membranes, [3H]nisoxetine 600 pM, on ice 180 min, Ki from IC50 by Cheng-Prusoff, read-out: NET (Ki)
[5] = rat cerebral cortex membranes, [3H]paroxetine 200 pM, room temperature 120 min, Ki from IC50 by Cheng-Prusoff, read-out: SERT (Ki)
[6] = read-out: DAT (Ki), rat corpus striatum membranes, [3H]GBR-12935 400 pM, on ice 45 min, Ki from IC50 by Cheng-Prusoff

T1 sequence (P31652 whole entry): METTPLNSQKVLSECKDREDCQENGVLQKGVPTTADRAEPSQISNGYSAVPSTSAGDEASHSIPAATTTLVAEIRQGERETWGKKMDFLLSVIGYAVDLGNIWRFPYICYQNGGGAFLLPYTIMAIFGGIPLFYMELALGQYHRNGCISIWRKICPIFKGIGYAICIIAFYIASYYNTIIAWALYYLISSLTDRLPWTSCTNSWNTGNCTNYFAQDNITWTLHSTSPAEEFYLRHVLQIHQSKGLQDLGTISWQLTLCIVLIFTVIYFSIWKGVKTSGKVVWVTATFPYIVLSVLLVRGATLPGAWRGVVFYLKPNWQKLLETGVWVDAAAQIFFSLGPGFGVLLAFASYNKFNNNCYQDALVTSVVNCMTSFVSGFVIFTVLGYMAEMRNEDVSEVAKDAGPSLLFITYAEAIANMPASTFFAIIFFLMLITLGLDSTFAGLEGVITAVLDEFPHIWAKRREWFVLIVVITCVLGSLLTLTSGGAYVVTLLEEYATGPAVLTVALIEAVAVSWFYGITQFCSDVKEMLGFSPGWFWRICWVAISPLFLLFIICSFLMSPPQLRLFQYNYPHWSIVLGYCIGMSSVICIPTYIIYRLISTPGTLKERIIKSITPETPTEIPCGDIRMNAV
dopamine transporter (DAT), sequence (P23977 whole entry): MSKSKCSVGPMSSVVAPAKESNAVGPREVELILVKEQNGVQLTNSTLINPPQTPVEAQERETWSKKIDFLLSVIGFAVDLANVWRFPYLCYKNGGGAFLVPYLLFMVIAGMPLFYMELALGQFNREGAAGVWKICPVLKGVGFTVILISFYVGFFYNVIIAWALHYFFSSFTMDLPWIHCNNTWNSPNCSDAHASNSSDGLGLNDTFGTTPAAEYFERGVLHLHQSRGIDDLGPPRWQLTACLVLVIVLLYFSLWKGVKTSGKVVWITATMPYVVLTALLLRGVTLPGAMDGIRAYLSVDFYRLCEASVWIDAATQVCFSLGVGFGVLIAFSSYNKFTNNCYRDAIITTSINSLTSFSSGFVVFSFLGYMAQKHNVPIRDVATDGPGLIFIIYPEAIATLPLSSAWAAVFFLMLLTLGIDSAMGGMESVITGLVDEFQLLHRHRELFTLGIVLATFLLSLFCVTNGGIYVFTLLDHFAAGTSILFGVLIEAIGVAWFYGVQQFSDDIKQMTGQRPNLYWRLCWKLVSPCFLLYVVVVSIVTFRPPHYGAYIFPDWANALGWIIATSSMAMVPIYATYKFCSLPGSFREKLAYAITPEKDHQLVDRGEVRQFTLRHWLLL
T2 sequence (Q63380 1-617): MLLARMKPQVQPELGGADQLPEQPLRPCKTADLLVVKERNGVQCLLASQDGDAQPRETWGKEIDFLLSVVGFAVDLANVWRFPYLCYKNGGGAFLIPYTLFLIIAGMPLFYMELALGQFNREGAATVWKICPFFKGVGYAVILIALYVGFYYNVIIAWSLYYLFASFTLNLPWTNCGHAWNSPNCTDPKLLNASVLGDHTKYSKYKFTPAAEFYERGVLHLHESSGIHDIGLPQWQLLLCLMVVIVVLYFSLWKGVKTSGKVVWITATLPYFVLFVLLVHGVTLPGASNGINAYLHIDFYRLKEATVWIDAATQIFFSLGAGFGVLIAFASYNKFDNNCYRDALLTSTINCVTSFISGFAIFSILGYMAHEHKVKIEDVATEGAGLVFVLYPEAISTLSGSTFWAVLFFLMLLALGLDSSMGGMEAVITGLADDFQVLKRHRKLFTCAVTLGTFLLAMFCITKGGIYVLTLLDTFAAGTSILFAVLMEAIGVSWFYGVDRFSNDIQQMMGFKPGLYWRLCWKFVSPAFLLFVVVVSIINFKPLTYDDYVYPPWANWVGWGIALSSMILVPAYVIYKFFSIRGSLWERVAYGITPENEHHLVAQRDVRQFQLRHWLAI

| Compound | Selectivity for SERT [1] | Ki [2, 4] [nM] | Ki [1, 5] [nM] | Ki [3] [nM] | Ki [1] [nM] | Ki [2] [nM] | Ki [3, 6] [nM] | Ki ([1]; read-out: SERT (Ki)) [nM] | melting point [°C] |
| --- | --- | --- | --- | --- | --- | --- | --- | --- | --- |
| COC(=O)C1C(c2ccc(-c3ccccc3[N+](=O)[O-])cc2)CC2CCC1N2C (centres unmarked) [Compound 4a] | 1 | > 3000 | – | – | – | – | – | – | – |
| COC(=O)C1C(c2ccc(-c3cccnc3)cc2)CC2CCC1N2C (centres unmarked) [Compound 16] | 7.3 | 1410 | 3.54 | 26.5 | – | – | – | – | – |
| COC(=O)[C@H]1[C@@H](c2ccc(-c3nccs3)cc2)C[C@@H]2CC[C@H]1N2C [Compound 14, 3β-(4-Thiazol-2-yl-phenyl)tropane-2β-carboxylic acid methyl ester] | 310 | – | – | 520 | 1.67 | > 10000 | – | – | – |
| COC(=O)C1C(c2ccc(-c3cccc(C(C)=O)c3)cc2)CC2CCC1N2C (centres unmarked) [Compound 6b] | – | > 50000 | – | – | – | – | 12.4 | – | – |
| COC(=O)C1C(c2ccc(-c3ccccn3)cc2)CC2CCC1N2C (centres unmarked) [Compound 15] | 0.27 | ≥ 10000 | 161 | – | – | – | 44 | – | – |
| COC(=O)C1C(c2ccc(-c3cccc(C(=O)c4ccccc4)c3)cc2)CC2CCC1N2C (centres unmarked) [Compound 8] | 1 | > 3000 | – | > 3000 | – | – | – | > 3000 | – |
| COC(=O)C1C(c2ccc(-c3ccccc3OC)cc2)CC2CCC1N2C (centres unmarked) [Compound 3a] | – | > 10000 | – | – | – | – | 357 | – | – |
| COC(=O)C1C(c2ccc(-c3cncc4ccccc34)cc2)CC2CCC1N2C (centres unmarked) [Compound 21] | 10 | > 10000 | – | > 30000 | – | – | – | – | – |
| COC(=O)C1C(c2ccc(-c3cccc(OC)c3)cc2)CC2CCC1N2C (centres unmarked) [Compound 3b] | 31.1 | > 3000 | 1.89 | – | – | – | 58.7 | – | – |
| COC(=O)C1C(c2ccc(-c3ccc(OC)cc3)cc2)CC2CCC1N2C (centres unmarked) [Compound 3c] | 0.41 | 352 | 32 | – | – | – | 13.2 | – | – |
| COC(=O)C1C2CCC(CC1c1ccc(-c3cncc(OC)c3)cc1)N2 (stereo not drawn) [Compound 18, 3β-[4-(5′-Methoxypyridin-3-yl)-phenyl]nortropane-2β-Carboxylic Acid Methyl Ester] | 150 | 1590 | – | 587 | – | – | – | 3.91 | – |
| COC(=O)C1C(c2ccc(-c3ccc(C(C)=O)cc3)cc2)CC2CCC1N2C (centres unmarked) [Compound 6c] | – | 754 | – | – | – | – | 19.1 | – | – |
| COC(=O)C1C(c2ccc(-c3cccc([N+](=O)[O-])c3)cc2)CC2CCC1N2C (centres unmarked) [Compound 4b] | 11.9 | 963 | 0.8 | – | – | – | 9.54 | – | – |
| COC(=O)C1C(c2ccc(-c3ccc([N+](=O)[O-])cc3)cc2)CC2CCC1N2C (centres unmarked) [Compound 4c] | 0.17 | 370 | 29.7 | – | – | – | 5.1 | – | – |
| COC(=O)C1C(c2ccc(-c3cncnc3)cc2)CC2CCC1N2C (centres unmarked) [Compound 19] | 10.4 | > 10000 | 33.1 | – | – | – | 344 | – | – |
| COC(=O)[C@H]1[C@@H](c2ccc(-c3ccsc3)cc2)C[C@@H]2CC[C@H]1N2C [Compound 12, 3β-(4-Thiophen-3-yl-phenyl)tropane-2β-carboxylic acid methyl ester] | 711 | – | – | 12.1 | 0.17 | 189 | – | – | – |
| COC(=O)C1C(c2ccc(-c3ccco3)cc2)CC2CCC1N2C (centres unmarked) [Compound 13] | 6.32 | – | 1.13 | – | – | 1400 | 7.14 | – | – |
| COC(=O)C1C(c2ccc(-c3cccc(N)c3)cc2)CC2CCC1N2C (centres unmarked) [Compound 5] | – | 661 | – | – | – | – | 24.2 | – | – |
| COC(=O)C1C(c2ccc(-c3cccc(O)c3)cc2)CC2CCC1N2C (centres unmarked) [Compound 2] | – | 155 | – | – | – | – | 15.2 | – | – |
| COC(=O)[C@H]1[C@@H](c2ccc(-c3cccc(CNC(=O)OC(C)(C)C)c3)cc2)C[C@@H]2CC[C@H]1N2C [Compound 7, 3β-[3′-(tert-Butoxycarbonylaminomethyl)biphenyl-4-yl]-Tropane-2β-carboxylic acid methyl ester] | 1 | > 30000 | – | > 10000 | – | – | – | > 10000 | – |
| COC(=O)C1C(c2ccc(-c3cccc(C4OCCO4)c3)cc2)CC2CCC1N2C (centres unmarked) [Compound 9] | 0.03 | > 30000 | – | 363 | – | – | – | > 10000 | – |
| COC(=O)C1C(c2ccc(-c3ccccc3C(C)=O)cc2)CC2CCC1N2C (centres unmarked) [Compound 6a] | – | > 20000 | – | – | – | – | 1020 | – | – |
| COC(=O)[C@H]1[C@@H](c2ccc(-c3cccs3)cc2)C[C@@H]2CC[C@H]1N2C [Compound 11, 3β-(4-Thiophen-2-yl-phenyl)tropane-2β-carboxylic acid methyl ester] | 346 | – | – | 52 | 0.15 | 158 | – | – | – |
| COC(=O)C1C2CCC(CC1c1ccc(-c3cccc(OC)c3)cc1)N2 (stereo not drawn) [Compound 10, 3β-(3′-methoxybiphenyl-4-yl)nortropane-2β-carboxylic acid methyl ester] | 306 | 295 | – | 710 | – | – | – | 2.32 | 102 to 104 |
| COC(=O)C1C(c2ccc(-c3cnc4ccccc4c3)cc2)CC2CCC1N2C (centres unmarked) [Compound 20] | 3.0 | > 3000 | 20 | – | – | – | 59.8 | – | – |
